From patent publication US8952030B2, “Morphinan derivative” (priority 2011, dated 2015) come the findings set out here.

Read-outs that look alike come from different tables or passages of the source.

One test deals with ICR male mice. Description: Analgesic activity (acetic acid writhing method). The class given is in vivo. The following applies: Mus musculus, sc; 3 mg/kg subcutaneous, 0.6% acetic acid i.p., writhing inhibition rate vs solvent group; hydrochloride was used; read-out: Inhibitory activities against writhing. The procedure: ICR male mice were used as groups each consisting of eight mice. Twenty minutes after the subcutaneous administration of a test compound (3 mg/kg), a 0.6% aqueous solution of acetic acid was intraperitoneally administered (0.1 mL/10 g body weight), and from the point 5 minutes after the administration, number of writhing observed over 20 minutes was counted. The analgesic activity was evaluated on the basis of the writhing inhibition rate (% inhibition) of the test compound administration group with respect to the writhing number of the solvent administration group.
1): Hydrochloride was used. 2): The evaluation results of the inhibitory activities against writhing were classified on the basis of the inhibition rate as follows. ≧90%, +++; 70≦%<90, ++; 50≦%<70, +

In a further test the target is T1, opioid μ receptor (Homo sapiens, UniProt P35372).
T1 construct: expressed in transfected cells; host or cells: CHO cells
Description: Opioid receptor functional test (Lance Ultra cAMP Kit), μ receptor agonist activity. The class given is cell-based. The following applies: for Emax at 10 µM: maximum concentration (10 μM), reaction did not reach the maximum, EC50 N.C., relative to DAMGO; for EC50: CHO cells expressing μ opioid receptor, 10 μM forskolin, cAMP. On the procedure:
(§1) Functional activities of the compounds of the present invention for the μ, […], and κ opioid receptors were investigated.
(§2) The test was performed according to a prescribed method by using Lance Ultra cAMP Kit (Perkin-Elmer). The agonist activities were evaluated as follows. The CHO cells expressing each opioid receptor (μ, δ, or κ) and a test compound were reacted in an assay buffer (1×HBSS, […], pH 7.4, […] IBMX (isobutylmethylxanthine), 7.5% BSA) for 30 minutes in the presence of 10 μM forskolin. Then, the cAMP detection reagent included in the kit was added, and after 1 hour, time-resolved fluorescence measurements were performed by using the EnVision plate reader (Perkin-Elmer). A dose-responce curve of the test compound was obtained from fluorescence values measured at 665 nm, and EC50 value and Emax value were calculated. The Emax value was calculated as a ratio of the maximum responce of the test compound with respect to the maximum responce of each control agent (SNC80 for δ, DAMGO for μ, U-69593 for κ) taken as 100%.
(§3) 1): Hydrochloride was used.

A further test has as its target T2, opioid κ receptor (Homo sapiens, UniProt P41145).
T2 construct: expressed in transfected cells; host or cells: CHO cells
Description: Opioid receptor functional test (Lance Ultra cAMP Kit), κ receptor agonist activity. The class given is cell-based. As to conditions: for Emax: read-out: κ Receptor Emax; for Emax at 10 µM: maximum concentration (10 μM), reaction did not reach the maximum, EC50 N.C., relative to U-69593, read-out: κ Receptor responce rate at the maximum concentration (reference value). On the procedure: as §1, §2, §3

The target in another test is T3, opioid δ receptor (Homo sapiens, UniProt P41143).
T3 construct: expressed in transfected cells; host or cells: CHO cells
Description: Opioid receptor functional test (Lance Ultra cAMP Kit), δ receptor agonist activity. The class given is cell-based. As to conditions: for Emax: read-out: δ Receptor Emax. On the procedure:
as §1, §2, §3

Setting [1] is: hydrochloride was used, read-out: μ Receptor responce rate at the maximum concentration (reference value).
[2] abbreviates: CHO cells expressing κ opioid receptor, 10 μM forskolin, cAMP, hydrochloride was used, read-out: κ Receptor EC50 value.
[3] abbreviates: maximum response relative to U-69593 taken as 100%, hydrochloride was used.
Setting [4] is: CHO cells expressing δ opioid receptor, 10 μM forskolin, cAMP, hydrochloride was used, read-out: δ Receptor EC50 value.
[5] abbreviates: maximum response relative to SNC80 taken as 100%, hydrochloride was used.
Setting [6] is: maximum response relative to DAMGO taken as 100%, hydrochloride was used, read-out: μ Receptor Emax.

T1 sequence (P35372 whole entry): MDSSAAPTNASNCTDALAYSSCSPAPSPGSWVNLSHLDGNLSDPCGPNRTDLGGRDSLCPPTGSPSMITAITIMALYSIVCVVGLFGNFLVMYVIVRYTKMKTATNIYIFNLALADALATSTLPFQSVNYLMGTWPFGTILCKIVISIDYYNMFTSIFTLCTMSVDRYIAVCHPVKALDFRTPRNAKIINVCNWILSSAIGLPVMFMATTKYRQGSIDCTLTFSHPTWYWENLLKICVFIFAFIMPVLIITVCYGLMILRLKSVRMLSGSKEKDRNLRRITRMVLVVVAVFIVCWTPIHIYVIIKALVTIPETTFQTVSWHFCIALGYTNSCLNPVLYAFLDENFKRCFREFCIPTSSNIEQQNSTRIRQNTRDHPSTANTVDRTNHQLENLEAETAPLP
T2 sequence (P41145 whole entry): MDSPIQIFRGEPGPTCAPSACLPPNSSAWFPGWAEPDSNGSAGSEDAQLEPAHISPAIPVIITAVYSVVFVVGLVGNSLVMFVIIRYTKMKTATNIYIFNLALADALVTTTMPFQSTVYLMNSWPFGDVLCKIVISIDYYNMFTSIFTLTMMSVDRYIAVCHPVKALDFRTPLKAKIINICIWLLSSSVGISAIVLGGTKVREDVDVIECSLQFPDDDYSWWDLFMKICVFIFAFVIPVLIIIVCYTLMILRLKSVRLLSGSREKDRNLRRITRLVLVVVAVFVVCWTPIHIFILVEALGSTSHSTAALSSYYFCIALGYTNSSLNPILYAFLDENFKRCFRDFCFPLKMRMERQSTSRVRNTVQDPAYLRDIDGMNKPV
T3 sequence (P41143 whole entry): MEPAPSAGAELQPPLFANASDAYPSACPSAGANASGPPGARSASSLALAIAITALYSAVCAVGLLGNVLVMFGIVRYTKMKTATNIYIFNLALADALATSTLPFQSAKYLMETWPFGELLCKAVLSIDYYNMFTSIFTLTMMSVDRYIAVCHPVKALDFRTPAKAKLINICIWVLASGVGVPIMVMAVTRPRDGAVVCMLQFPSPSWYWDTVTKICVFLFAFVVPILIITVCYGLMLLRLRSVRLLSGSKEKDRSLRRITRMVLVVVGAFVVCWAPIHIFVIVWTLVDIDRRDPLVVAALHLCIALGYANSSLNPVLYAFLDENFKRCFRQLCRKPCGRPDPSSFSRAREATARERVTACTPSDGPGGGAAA

Turning to `Oc1ccc2c(c1)C13CCN(CC4CC4)C(C2)C12CCC1C3[C@@H](CN1c1ccc3ccccc3n1)C2` (stereo partly shown) [Compound 243], the inhibition in vivo at 3 mg/kg in the test with ICR male mice fell in the range of 70 to 90%.

On to `Oc1ccc2c(c1)C13CCN(CC4CC4)C(C2)C12CCC1C3[C@@H](CN1c1cc(F)ccn1)C2` (stereo partly shown) [Compound 239], for which the inhibition in vivo at 3 mg/kg in the test with ICR male mice is no less than 90%.

Regarding `Oc1ccc2c(c1)C13CCN(CC4CC4)C(C2)C12CCC1C3[C@@H](CN1c1nc(-c3ccccc3)cs1)C2` (stereo partly shown) [Compound 242], the Emax at 10 µM on opioid μ receptor (setting [1]) is 9.2%. The EC50 on opioid κ receptor (setting [2]) was greater than 10 nM; on opioid δ receptor (setting [4]) it was less than 50 nM. Besides, the Emax on opioid κ receptor (setting [3]) turned out to be 47%; at opioid δ receptor (setting [5]), 68%.

`Oc1ccc2c(c1)[C@]13CCN(CC4CC4)[C@H](C2)[C@]12CC[C@@H]1[C@H]3[C@@H](CN1c1ccccc1)O2` [Compound 31, (1S,3aR,5aS,6R,11bR,11cS)-14-(cyclopropylmethyl)-3-phenyl-2,3,3a,4,5,6,7,11c-octahydro-1H-6,11b-(iminoethano)-1,5a-epoxynaphtho[1,2-e]indol-10-ol]: on opioid μ receptor (setting [1]), the Emax at 10 µM is 14%. The EC50 on opioid κ receptor (setting [2]) is greater than 1 nM; at opioid δ receptor (setting [4]), less than 10 nM. In addition, the Emax at opioid κ receptor (setting [3]) was 23%; at opioid δ receptor (setting [5]) it was 46%.

Turning to `NC(=O)c1ccc2c(c1)[C@]13CCN(CC4CC4)[C@H](C2)[C@]12CCC1C3[C@@H](CN1C(=O)c1ccccc1)O2` (stereo partly drawn) [Compound 306, (1S,5aS,6R,11bR)-3-benzoyl-14-(cyclopropylmethyl)-2,3,3a,4,5,6,7,11c-octahydro-1H-6,11b-(iminoethano)-1,5a-epoxynaphtho[1,2-e]indole-10-carboxamide], the Emax at 10 µM at opioid μ receptor (setting [1]) was 2.8%; on opioid κ receptor (hydrochloride was used), 9.5%. Moreover, the half-maximal effective concentration (EC50) on opioid δ receptor (setting [4]) was less than 10 nM. In addition, the Emax on opioid δ receptor (setting [5]) was 84%.

Take `Oc1ccc2c(c1)[C@]13CCN(CC4CC4)[C@H](C2)[C@]12CCC1C3[C@@H](CN1c1ccccn1)C2` (stereo partly drawn) [Compound 221, (1S,5aS,6R,11bR)-14-(cyclopropylmethyl)-3-(pyridin-2-yl)-2,3,3a,4,5,6,7,11c-octahydro-1H-6,11b-(iminoethano)-1,5a-methanonaphtho[1,2-e]indol-10-ol]: the EC50 at opioid μ receptor (hydrochloride was used) was greater than 1 nM; on opioid κ receptor (setting [2]), greater than 1 nM; on opioid δ receptor (setting [4]) it was less than 1 nM. Also, the Emax was 30% on opioid μ receptor (setting [6]), 42% on opioid κ receptor (setting [3]) and 90% at opioid δ receptor (setting [5]).

Consider `Cc1cc(C)nc(N2C[C@H]3C[C@@]45CCC2C3[C@@]42CCN(CC3CC3)[C@@H]5Cc3ccc(O)cc32)n1` (stereo partly drawn) [Compound 223, (1S,5aS,6R,11bR)-14-(cyclopropylmethyl)-3-(4,6-dimethylpyrimidin-2-yl)-2,3,3a,4,5,6,7,11c-octahydro-1H-6,11b-(iminoethano)-1,5a-methanonaphtho[1,2-e]indol-10-ol], for which the inhibition in vivo at 3 mg/kg in the test on ICR male mice was no less than 90%.

As to `O=C(Oc1ccccc1)N1C[C@H]2CC34CCC1C2C31CCN(CC2CC2)C4Cc2ccc(O)cc21` (stereo partly shown) [Compound 195], the Emax on opioid μ receptor (read-out: μ Receptor responce rate at the maximum concentration (reference value)) worked out at 5.6%; at opioid κ receptor, 27%; at opioid δ receptor, 92%. Besides, the EC50 is greater than 1 nM on opioid κ receptor and less than 10 nM on opioid δ receptor.

`COc1cc2c(cc1[N+](=O)[O-])C[C@H]1N(CC3CC3)CC[C@@]23C2C4CC[C@@]13C[C@@H]2CN4c1nc(C)cc(C)n1` (stereo partly drawn) [Compound 311, (1S,5aS,6R,11bR)-14-(cyclopropylmethyl)-3-(4,6-dimethylpyrimidin-2-yl)-10-methoxy-9-nitro-2,3,3a,4,5,6,7,11c-octahydro-1H-6,11b-(iminoethano)-1,5a-methanonaphtho[1,2-e]indole]: the values for the 50% effective concentration (EC50) on opioid μ receptor (hydrochloride was used), on opioid κ receptor (setting [2]) and at opioid δ receptor (setting [4]) were greater than 100 nM, greater than 500 nM and less than 50 nM, respectively. For the same molecule, the values for the Emax on opioid μ receptor (setting [6]), at opioid κ receptor (setting [3]) and at opioid δ receptor (setting [5]) were 18%, 16% and 82%, respectively.

Consider `Cc1cc(C)nc(N2C[C@H]3CC45CCC2C3C42CCN(C[C@H](C)O)C5Cc3ccc(O)cc32)n1` (stereo partly shown) [Compound 285], for which the EC50 on opioid μ receptor (hydrochloride was used) was greater than 10 nM; at opioid κ receptor (setting [2]), greater than 100 nM; on opioid δ receptor (setting [4]), less than 10 nM. Besides, the Emax at opioid μ receptor (setting [6]) stood at 48%; at opioid κ receptor (setting [3]), 78%; at opioid δ receptor (setting [5]), 81%.

On to `CC(C)COC(=O)N1C[C@H]2CC34CCC1C2C31CCN(CC2CC2)C4Cc2ccc(O)cc21` (stereo partly shown) [Compound 196], for which the Emax at 10 µM at opioid μ receptor (setting [1]) came out at 7.6%. In addition, the figures for the EC50 at opioid κ receptor (setting [2]) and at opioid δ receptor (setting [4]) were greater than 1 nM and less than 10 nM, respectively. Further, the Emax on opioid κ receptor (setting [3]) was found to be 12%; at opioid δ receptor (setting [5]), 67%.

`O=C(/C=C/c1ccccc1)N1C[C@H]2OC34CCC1C2C31CCN(CC2CC2)C4Cc2ccc(O)cc21` (stereo partly drawn) [Compound 57, (2E)-1-[(1S,3aR,5aS,6R,11bR,11cS)-14-(cyclopropylmethyl)-10-hydroxy-1,2,3a,4,5,6,7,11c-octahydro-3H-6,11b-(iminoethano)-1,5a-epoxynaphtho[1,2-e]indol-3-yl]-3-phenylpropenone]: the Emax at 10 µM turned out to be 3% on opioid μ receptor (setting [1]) and 25% at opioid κ receptor (hydrochloride was used). Also, the EC50 at opioid δ receptor (setting [4]) was less than 10 nM. For the same molecule, the Emax at opioid δ receptor (setting [5]) was 63%.

On to `COc1ccc2c(c1)[C@]13CCN(CC4CC4)[C@H](C2)[C@]12CCC1C3[C@@H](CN1c1nc(C)cc(C)n1)C2` (stereo partly drawn) [Compound 222, (1S,5aS,6R,11bR)-14-(cyclopropylmethyl)-3-(4,6-dimethylpyrimidin-2-yl)-10-methoxy-2,3,3a,4,5,6,7,11c-octahydro-1H-6,11b-(iminoethano)-1,5a-methanonaphtho[1,2-e]indole], for which the EC50 on opioid μ receptor (hydrochloride was used) was greater than 100 nM; on opioid δ receptor (setting [4]) it was less than 10 nM. In addition, the values for the Emax at opioid μ receptor (setting [6]) and at opioid δ receptor (setting [5]) were 52% and 105%, respectively. For the same molecule, at opioid κ receptor (hydrochloride was used), the Emax at 10 µM came to 43%.

For the molecule `O=S(=O)(c1ccccc1)N1C[C@H]2O[C@@]34CC[C@@H]1[C@@H]2[C@@]31CCN(CC2CC2)[C@@H]4Cc2ccc(O)cc21` [Compound 58, (1S,3aR,5aS,6R,11bR,11cS)-3-benzenesulfonyl-14-(cyclopropylmethyl)-2,3,3a,4,5,6,7,11c-octahydro-1H-6,11b-(iminoethano)-1,5a-epoxynaphtho[1,2-e]indol-10-ol], the EC50 at opioid μ receptor (hydrochloride was used) was greater than 1 nM; at opioid δ receptor, less than 10 nM. The Emax at opioid μ receptor (setting [6]) was determined as 54%; at opioid δ receptor, 66%. The Emax at 10 µM at opioid κ receptor (hydrochloride was used) came to 19%.

With `Cc1cc(C)nc(N2C[C@H]3CC45CCC2C3C42CCN(CC(F)(F)c3ccccc3)C5Cc3ccc(O)cc32)n1` (stereo partly shown) [Compound 283], the EC50 on opioid μ receptor (hydrochloride was used) was greater than 500 nM; at opioid δ receptor (setting [4]) it was less than 50 nM. Moreover, the values for the Emax on opioid μ receptor (setting [6]) and on opioid δ receptor (setting [5]) were 101% and 91%, respectively. Further, at opioid κ receptor (hydrochloride was used), the Emax at 10 µM came to 11%.

As to `Oc1ccc2c(c1)C13CCN(CC4CC4)C(C2)C12CCC1C3[C@@H](CN1c1cnccn1)C2` (stereo partly shown) [Compound 257], in the test on ICR male mice, the inhibition in vivo at 3 mg/kg fell in the range of 70 to 90%.

`C[C@H]1[C@H]2C[C@@]34CC[C@H]([C@@H]2[C@]32CCN(CC3CC3)[C@@H]4Cc3ccc(O)cc32)N1C(=O)c1ccccc1` [Compound 334, [(1S,2S,3aR,5aS,6R,11bS,11cS)-14-(Cyclopropylmethyl)-10-hydroxy-2-methyl-1,2,3a,4,5,6,7,11c-octahydro-3H-6,11b-(iminoethano)-1,5a-methanonaphtho[1,2-e]indol-3-yl](phenyl)methanone]: the Emax at 10 µM at opioid μ receptor (setting [1]) is 2.9%. Also, the figures for the EC50 on opioid κ receptor (setting [2]) and on opioid δ receptor (setting [4]) were greater than 1 nM and less than 1 nM, respectively. The figures for the Emax on opioid κ receptor (setting [3]) and at opioid δ receptor (setting [5]) were 39% and 87%, respectively.

Usually EC50 stands for the concentration giving half of the maximal effect.
